Results on 22 compounds are retold here after patent publication US11253525B2, “Inhibitors of indoleamine 2,3-dioxygenase and methods of their use” (BRISTOL-MYERS SQUIBB COMPANY, priority 2018, dated 2022).

Each structure is given as a SMILES string. Like-named read-outs stand apart in the source and are kept apart here.

One experiment concerns the target T1, human IDO1 (Homo sapiens, UniProt P14902).
T1 construct: expressed in transfected cells
The experiment is described as follows: HEK293 cell-based indoleamine 2,3-dioxygenase (IDO) assay. Conditions: human IDO1/HEK293 cells, 20 hours. On the procedure:
Assessment of Inhibitor Activity in HEK293 Cell-Based Indoleamine 2,3-Dioxygenase (IDO) Assay
HEK293 cells were transfected with a pCDNA-based mammalian expression vector harboring human IDO1 cDNA (NM 002164.2) by electroporation. They were cultured in medium (DMEM with 10% FBS) containing 1 mg/ml G418 for two weeks. Clones of HEK293 cells that stably expressed human IDO1 protein were selected and expanded for IDO inhibition assay.
The human IDO1/HEK293 cells were seeded at 10,000 cells per 50 μL per well with RPMI/phenol red free media contains 10% FBS in a 384-well black wall clear bottom tissue culture plate (Matrix Technologies LLC) 100 nL of certain concentration of compound was then added to each well using ECHO liquid handling systems. The cells were incubated for 20 hours in 37° C. incubator with 5% CO2.
The compound treatments were stopped by adding trichloroacetic acid (Sigma-Aldrich) to a final concentration at 0.2%. The cell plate was further incubated at 50° C. for 30 minute. The equal volume supernatant (20 μL) and 0.2% (w/v) Ehrlich reagent (4-dimethylaminobenzaldehyde, Sigma-Aldrich) in glacial acetic acid were mixed in a new clear bottom 384-well plate. This plate was then incubated at room temperature for 30 minute. The absorbance at 490 nm was measured on Envision plate reader.
Compound IC50 values were calculated using the counts of 500 nM of a reference standard treatment as one hundred percent inhibition, and counts of no compound but DMSO treatment as zero percent inhibition.

The target in experiment [1] is T2, indoleamine 2,3-dioxygenase (IDO) (Homo sapiens, UniProt P14902).
T2 construct: replaced with media containing IFNγ (#285-IF/CF, R&D Systems) at a final concentration of 25 ng/mL; endogenous in cells; host or cells: HeLa (ATCC CCL-2), IFN-gamma stimulated
T2 sequence (P14902 whole entry): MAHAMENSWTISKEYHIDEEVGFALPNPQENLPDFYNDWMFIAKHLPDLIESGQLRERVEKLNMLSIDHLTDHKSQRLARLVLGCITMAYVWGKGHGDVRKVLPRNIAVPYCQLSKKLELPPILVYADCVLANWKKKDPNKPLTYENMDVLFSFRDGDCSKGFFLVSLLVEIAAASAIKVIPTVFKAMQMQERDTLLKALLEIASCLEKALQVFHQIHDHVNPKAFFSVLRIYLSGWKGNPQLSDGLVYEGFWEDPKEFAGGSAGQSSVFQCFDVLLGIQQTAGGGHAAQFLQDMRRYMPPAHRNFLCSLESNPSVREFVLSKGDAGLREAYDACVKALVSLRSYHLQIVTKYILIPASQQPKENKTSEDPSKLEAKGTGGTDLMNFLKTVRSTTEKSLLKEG
As to the kind of experiment: HeLa cell-based indoleamine 2,3-dioxygenase (IDO) assay, kynurenine production. The following applies: HeLa cells, IFNγ 25 ng/mL, 48 hour incubation.

[2] abbreviates: read-out: IDO Hela IC50 class (A < 50, B < 250, C < 2000).
Where [3] appears, read: read-out: IDO1 HEK Human IC50 class (A < 50, B < 250, C < 2000).

T1 sequence (P14902 whole entry): as above

What is called IC50 is the concentration at which inhibition is half-maximal. Consider `Cc1ccc(NC(=O)Nc2cc(-c3ccccc3-c3nn[nH]n3)ccc2C(CC(C)C)CC(C)C)cc1` [Example 134, 1-(4-(2,6-dimethylheptan-4-yl)-2′-(2H-tetrazol-5-yl)-[1,1′-biphenyl]-3-yl)-3-(p-tolyl)urea], for which the IC50 on human IDO1 (read-out: IDO1 HEK Human IC50) is 20 nM.
As for `CCO[C@H](c1ccc([C@H](CC)CC(=O)O)cc1Nc1ccc(Cl)cc1)C(F)(F)F` (single isomer, unassigned) [Example 11], the IC50 is 1 nM at human IDO1 (read-out: IDO1 HEK Human IC50) and under 50 nM in experiment [1] (setting [2]).
As to `CCO[C@H](c1ccc(F)cc1)c1cc(Nc2ccc(Cl)cc2)cc([C@H](CC)CC(=O)O)c1` (single isomer, unassigned) [Example 113-1], the IC50 (on human IDO1 (read-out: IDO1 HEK Human IC50); in experiment [1] (read-out: IDO Hela IC50)) was 20 nM each time.
For the compound `CCO[C@@H](c1ccc(F)cc1)c1cc(Nc2ccc(Cl)cc2)cc([C@H](CC)CC(=O)O)c1` (single isomer, unassigned) [Example 112-1], the values for the IC50 (at human IDO1 (read-out: IDO1 HEK Human IC50); in experiment [1] (setting [2])) were 2 nM and under 50 nM, respectively.
For `Cc1ccc(NC(=O)Nc2cc(OCC(=O)O)ccc2C(CC(C)C)CC(C)C)cc1` [Example 138, 2-(4-(2,6-Dimethylheptan-4-yl)-3-(3-(p-tolyl)ureido)phenoxy)acetic acid], at human IDO1 (read-out: IDO1 HEK Human IC50), the IC50 came to 464 nM.
On the same count and under the same terms, in the case of `CCO[C@H](c1ccc(F)cc1)c1cc(Nc2ccc3nc(C)sc3c2)cc([C@H](CC)CC(=O)O)c1` (single isomer, unassigned) [Example 116] it was 108 nM; in that of `Cc1cc(NC(=O)Nc2cc(-c3ccccc3-c3nn[nH]n3)ccc2C(CC(C)C)CC(C)C)no1` [Example 136, 1-(4-(2,6-Dimethylheptan-4-yl)-2′-(2H-tetrazol-5-yl)-[1,1′-biphenyl]-3-yl)-3-(5-methylisoxazol-3-yl)urea], 19 nM.
Take `CCO[C@@H](c1ccc([C@H](CC)CC(=O)O)cc1Nc1ccc(Cl)cc1)C(F)(F)F` (stereo in doubt) [Example 34, (R)-3-(3-((4-chlorophenyl)amino)-4-((S)-1-ethoxy-2,2,2-trifluoroethyl)phenyl)pentanoic acid]: the IC50 at human IDO1 (read-out: IDO1 HEK Human IC50) was 1 nM; in experiment [1] (setting [2]) it was under 50 nM.
With `CCO[C@@H](c1ccc(F)cc1)c1cc(Nc2ccc3nc(C)sc3c2)cc([C@H](CC)CC(=O)O)c1` (single isomer, unassigned) [Example 114], the IC50 was found to be 23 nM on human IDO1 (read-out: IDO1 HEK Human IC50) and 20 nM in experiment [1] (read-out: IDO Hela IC50).
Take `CCOC(C)(C)c1ccc([C@@H](CC)CC(=O)O)cc1Nc1ccc2nc(C)sc2c1` (single isomer, unassigned) [Example 4]: the concentration for half-maximal inhibition (IC50) on human IDO1 (setting [3]) lay in the range of 250 to 2000 nM.
For the compound `CCOC(C)(C)c1ccc([C@@H](CC)CC(=O)O)cc1NC(=O)Nc1ccc(C)cc1` (single isomer, unassigned) [Example 2], the IC50 was 224 nM at human IDO1 (read-out: IDO1 HEK Human IC50) and 250 to 2000 nM at human IDO1 (setting [3]).
Consider `CC(C)CC(CC(C)C)c1ccc(-c2ccccc2-c2nn[nH]n2)cc1NC(=O)Nc1ccc(Cl)cc1F` [Example 135, 1-(4-Chloro-2-fluorophenyl)-3-(4-(2,6-dimethylheptan-4-yl)-2′-(2H-tetrazol-5-yl)-[1,1′-biphenyl]-3-yl)urea], for which the IC50 (on human IDO1 (read-out: IDO1 HEK Human IC50); in experiment [1] (read-out: IDO Hela IC50)) was 10 nM each time.
On to `CCOc1ncc(Nc2cc([C@@H](CC)CC(=O)O)ccc2C(C)(C)OCC)cn1` (single isomer, unassigned) [Example 6], for which the IC50 at human IDO1 (setting [3]) is 250 to 2000 nM.
`CCO[C@@H](c1ccc(F)cc1)c1cc(Nc2ccc(Cl)cc2)cc([C@@H](CC)CC(=O)O)c1` (single isomer, unassigned) [Example 112-2]: the IC50 turned out to be 7 nM at human IDO1 (read-out: IDO1 HEK Human IC50) and 30 nM in experiment [1] (read-out: IDO Hela IC50).
`CCO[C@@H](c1ccc(F)cc1)c1cc(Nc2ccc3nc(C)sc3c2)cc([C@@H](CC)CC(=O)O)c1` (single isomer, unassigned) [Example 115]: at human IDO1 (read-out: IDO1 HEK Human IC50), the IC50 turned out to be 1200 nM.
As to `CCO[C@H](c1ccc([C@@H](CC)CC(=O)O)cc1Nc1ccc(Cl)cc1)C(F)(F)F` (stereo in doubt) [Example 23, (S)-3-(3-((4-chlorophenyl)amino)-4-((R)-1-ethoxy-2,2,2-trifluoroethyl)phenyl)pentanoic acid], the IC50 at human IDO1 (read-out: IDO1 HEK Human IC50) stood at 1 nM.
Take `CCO[C@H](c1ccc(F)cc1)c1cc(Nc2ccc3nc(C)sc3c2)cc([C@@H](CC)CC(=O)O)c1` (single isomer, unassigned) [Example 117]: the IC50 on human IDO1 (setting [3]) was in the range of 250 to 2000 nM.
Regarding `CCOC(C)(C)c1ccc([C@H](CC)CC(=O)O)cc1NC(=O)Nc1ccc(C)cc1` (single isomer, unassigned) [Example 1], on human IDO1 (setting [3]), the IC50 was in the range of 250 to 2000 nM.
With `CCOC(C)(C)c1ccc([C@@H](CC)CC(=O)O)cc1Nc1ccc(Cl)cc1` (single isomer, unassigned) [Example 5], the IC50 at human IDO1 (read-out: IDO1 HEK Human IC50) was determined as 95 nM.
In the case of `CC[C@@H](CC(=O)O)c1ccc(C(CC(C)C)CC(C)C)c(NC(=O)Nc2ccc(C)cc2)c1` [Example 137, (S)-3-(4-(2,6-Dimethylheptan-4-yl)-3-(3-(p-tolyl)ureido)phenyl)pentanoic Acid], the IC50 at human IDO1 (read-out: IDO1 HEK Human IC50) was 4 nM; in experiment [1] (setting [2]), under 50 nM.
`CCO[C@H](c1ccc(F)cc1)c1cc(Nc2ccc(Cl)cc2)cc([C@@H](CC)CC(=O)O)c1` (single isomer, unassigned) [Example 113-2]: the IC50 on human IDO1 (read-out: IDO1 HEK Human IC50) turned out to be 131 nM.
Turning to `CCOC(C)(C)c1ccc(C(CC)CC(=O)O)cc1Nc1ccc2nc(C)sc2c1` (single isomer, unassigned) [Example 3], the IC50 on human IDO1 (setting [3]) was 250 to 2000 nM.
